Data from patent US11400107B2, “Cancer treatments” (NuCana plc, priority 2016, dated 2022).
Entries after “also recorded” stand apart in the source; their conditions may differ.

Test system: advance progressive cancers refractory to, or relapsed on, all conventional therapies
Test: ProGem1 dose escalation clinical study of NUC-1031
Assay type: in vivo, human
Set-up: CA125 level: unit not given here
Description: The following data were generated in clinical studies of NUC-1031 in human patients with advance progressive cancers that are refractory to, or have relapsed on, all conventional therapies that have been used to date. The results clearly illustrate the ability of NUC-1031 to successfully treat refractory cancers.
Although the primary objectives of the dose escalation part of the study were to determine the Recommended Phase II Dose (RP2D) and safety profile, secondary objectives included determining the PK profile, however effective treatment of patients with a range of refractory cancers has also been observed as part of this study.
A total of 68 patients have been entered into this dose escalation study, of which 49 were evaluable for clinical response in that they have received at least 2 Cycles of NUC-1031 and were therefore eligible for a RECIST 1.1 assessment.
NUC-1031 was administered as a 5 to 30 minute intravenous slow bolus injection. • Schedule A: NUC-1031 was administered on days 1, 8, 15 of a 4 weekly Cycle. • Schedule B: NUC-1031 was administered on days 1, 5, 8, 12, 15, 19, of a 4 weekly Cycle. Evaluable Patients [n=49]
Evaluable patients were patients that received ≥2 Cycles of NUC-1031 and were therefore eligible for a RECIST 1.1 assessment at the end of Cycle 2. Where the disease response duration, measured in months, is followed by a “+” this indicates ongoing disease control as of the latest cut-off date.

[1] = Patient 004, breast cancer, 500 mg/m^2 weekly
[2] = Patient 005, ovarian cancer, 500 mg/m^2 weekly
[3] = Patient 006, cholangiocarcinoma, 375 mg/m^2 twice weekly, then 500 mg/m^2
[4] = Patient 007, colorectal cancer, 375 mg/m^2 twice weekly, then 500 mg/m^2 weekly
[5] = Patient 008, cancer of unknown primary, 375 mg/m^2 twice weekly
[6] = Patient 010, endometrial cancer, 750 then 500 mg/m^2 weekly
[7] = Patient 011, uterine carcinosarcoma, 375 mg/m^2 twice weekly
[8] = Patient 011, uterine carcinosarcoma, 375 mg/m^2 twice weekly, then 625 mg/m^2 weekly
[9] = Patient 012, cholangiocarcinoma, 375 mg/m^2 twice weekly, then 625 mg/m^2 weekly
[10] = Patient 013, cervical cancer, 750, 625, then 500 mg/m^2 weekly
[11] = Patient 017, lung cancer, 750 then 625 mg/m^2 weekly
[12] = Patient 018, lung cancer, 625 mg/m^2 weekly
[13] = Patient 021, fallopian tube cancer, 625 mg/m^2 weekly
[14] = Patient 025, mesothelioma, 725 mg/m^2 weekly
[15] = Patient 026, colorectal cancer, 725 mg/m^2 weekly
[16] = Patient 027, ovarian cancer, 725, 675, then 625 mg/m^2 weekly
[17] = Patient 029, breast cancer, 725 mg/m^2 weekly
[18] = Patient 030, ovarian cancer, 725 mg/m^2 weekly
[19] = Patient 032, oesophageal cancer, 750 mg/m^2 weekly
[20] = Patient 033, cholangiocarcinoma, 750 mg/m^2 weekly
[21] = Patient 036, renal carcinoma, 825 then 750 mg/m^2 weekly
[22] = Patient 037, pancreatic cancer, 1,000 then 900 mg/m^2 weekly

Q: How did the “Best response to RECIST” value [1] turn out when C[C@H](NP(=O)(OC[C@H]1O[C@@H](n2ccc(N)nc2=O)C(F)(F)[C@@H]1O)Oc1ccccc1)C(=O)OCc1ccccc1 (stereo partly drawn) [NUC-1031, 2′-deoxy-2′,2′-difluoro-D-cytidine-5′-O-[phenyl (benzoxy-L-alaninyl)] phosphate] was run?
A: The value was “Stable Disease”.

Q: And the “Duration of response to RECIST” value [1]?
A: The value was 12 months.

Q: And the “Best response to RECIST” value [2]?
A: Its value is “Stable Disease”.

Q: What about the “Duration of response to RECIST” value [2] of the same molecule?
A: The value was 15 months.

Q: And the CA125 level (Patient 005, ovarian cancer, end of Cycle 6 (208 at start of study))?
A: Its CA125 level is 140.

Q: What about the “Best response to RECIST” value [3] of the same molecule?
A: The value was “Stable Disease”.

Q: And the “Duration of response to RECIST” value [3]?
A: Its value is 3 months.

Q: What about the CA19.9 level (Patient 006, cholangiocarcinoma, after two doses (from 125,002)) of the same molecule?
A: The CA19.9 level was 59,285.

Q: What about the “Adverse events (grade)” value [4] of the same molecule?
A: Its value is “thrombocytopaenia (G3)”.

Q: And the “Best response to RECIST” value [4]?
A: Its value is “Stable Disease”.

Q: And the “Duration of response to RECIST” value [4]?
A: The value was 3 months.

Q: And the CEA level (Patient 007, colorectal cancer, after treatment (from 361))?
A: Its CEA level is 286.

Q: What about the CA19.9 level (Patient 007, colorectal cancer, after treatment (from 3,151)) of the same molecule?
A: The CA19.9 level was 2,957.

Q: And the “Adverse events (grade)” value [5]?
A: Its value is “transient (G3) transaminitis (ALT and AST)”.

Q: And the “Best response to RECIST” value [5]?
A: Its value is “Stable Disease”.

Q: And the “Duration of response to RECIST” value [5]?
A: The value was 3 months.

Q: And the “Adverse events (grade)” value [6]?
A: The value was “neutropenia (G3); also recorded: transient Grade 3 anaemia”.

Q: And the “Best response to RECIST” value [6]?
A: Its value is “Stable Disease”.

Q: And the “Duration of response to RECIST” value [6]?
A: The value was 9 months.

Q: What about the CA125 level (Patient 010, endometrial cancer, after treatment (from 727)) of the same molecule?
A: The CA125 level was 488.

Q: What about the “Adverse events (grade)” value [7] of the same molecule?
A: Its value is “transient neutropaenia (G3); also recorded: low haemoglobin (G2)”.

Q: What about the “Reduction in tumour volume” value [7] of the same molecule?
A: The value was 26%.

Q: What about the “Best response to RECIST” value [8] of the same molecule?
A: Its value is “Stable Disease”.

Q: And the “Duration of response to RECIST” value [8]?
A: Its value is 4 months.

Q: And the “Best response to RECIST” value [9]?
A: The value was “Stable Disease”.

Q: What about the “Duration of response to RECIST” value [9] of the same molecule?
A: Its value is 8 months.

Q: What about the “Best response to RECIST” value [10] of the same molecule?
A: The value was “Partial Response”.

Q: And the “Duration of response to RECIST” value [10]?
A: Its value is 9 months.

Q: And the PFS [10]?
A: The PFS was 11 months.

Q: And the “Best response to RECIST” value (Patient 014, mesothelioma, 750 then 625 mg/m^2 weekly)?
A: The value was “Progressive Disease”.

Q: And the “Best response to RECIST” value (Patient 015, cancer (unknown primary), 750, 625, then 500 mg/m^2 weekly)?
A: Its value is “Partial Response”.

Q: And the “Reduction in tumour size” value (Patient 015, cancer (unknown primary), CT scan on 9 Jan. 2015)?
A: Its value is “approximately 58%”.

Q: What about the “Adverse events (grade)” value (Patient 015, cancer (unknown primary), Cycle 1 Day 8) of the same molecule?
A: The value was “thrombocytopenia (G3); also recorded: lymphopenia (G3); also recorded: neutropenia (G2)”.

Q: And the PFS (Patient 015, cancer (unknown primary), ongoing)?
A: The PFS was no less than 24 months.

Q: What about the “Duration of response to RECIST” value (Patient 015, cancer (unknown primary), ongoing, 750, 625, then 500 mg/m^2 weekly) of the same molecule?
A: The value was no less than 20 months.

Q: What about the “Best response to RECIST” value [11] of the same molecule?
A: Its value is “Partial Response”.

Q: And the “Duration of response to RECIST” value [11]?
A: Its value is 3 Months.

Q: And the PFS [11]?
A: The PFS was 10 Months.

Q: And the “Best response to RECIST” value [12]?
A: The value was “Stable Disease”.

Q: And the “Duration of response to RECIST” value [12]?
A: Its value is 4 months.

Q: What about the Best overall response [13] of the same molecule?
A: Its Best overall response is “Partial Response”.

Q: What about the “Duration of Partial Response according to GCIG criteria” value [13] of the same molecule?
A: Its value is 9 months.

Q: And the “Duration of Partial Response according to RECIST” value [13]?
A: Its value is 3 months.

Q: What about the “CA125 reduction from baseline” value (Patient 021, fallopian tube cancer, baseline to end of Cycle 6) of the same molecule?
A: The value was 91%.

Q: And the CA125 level (Patient 021, fallopian tube cancer, end of Cycle 6 (baseline 372))?
A: Its CA125 level is 35.

Q: What about the “Best response to RECIST” value (Patient 024, cancer of unknown primary, 675 mg/m^2 weekly) of the same molecule?
A: Its value is “Progressive Disease”.

Q: What about the “Best response to RECIST” value [14] of the same molecule?
A: Its value is “Stable Disease”.

Q: What about the “Duration of response to RECIST” value [14] of the same molecule?
A: Its value is 4 months.

Q: And the “Best response to RECIST” value [15]?
A: Its value is “Stable Disease”.

Q: What about the “Duration of response to RECIST” value [15] of the same molecule?
A: Its value is 4 months.

Q: What about the “Adverse events (grade)” value (Patient 027, ovarian cancer, 725 mg/m^2, following Cycle 1 Day 1, a DLT) of the same molecule?
A: The value was “elevated ALT (G3)”.

Q: What about the “Best response to RECIST” value [16] of the same molecule?
A: The value was “Stable Disease”.

Q: And the “Duration of response to RECIST” value [16]?
A: Its value is 8 months.

Q: What about the “Reduction in tumour volume” value [16] of the same molecule?
A: The value was 23%.

Q: And the ALT level (Patient 027, ovarian cancer, day 7 after Cycle 1 Day 1 at 725 mg/m^2 (96 at baseline))?
A: Its ALT level is 256 U/L.

Q: What about the CA125 level (Patient 027, ovarian cancer, end of Cycle 6 (188 at baseline)) of the same molecule?
A: Its CA125 level is 99.

Q: What about the “Best response to RECIST” value [17] of the same molecule?
A: Its value is “Stable Disease”.

Q: And the “Duration of response to RECIST” value [17]?
A: Its value is 4 months.

Q: What about the “Best response to RECIST” value [18] of the same molecule?
A: Its value is “Stable Disease”.

Q: And the “Duration of response to RECIST” value [18]?
A: The value was 3 months.

Q: What about the “Best response to RECIST” value (Patient 031, cholangiocarcinoma, 750 mg/m^2 weekly, end of Cycle 2 CT scan) of the same molecule?
A: Its value is “Progressive Disease”.

Q: And the “Best response to RECIST” value [19]?
A: The value was “Stable Disease”.

Q: And the “Duration of response to RECIST” value [19]?
A: The value was 2 months.

Q: And the “Best response to RECIST” value [20]?
A: Its value is “Stable Disease”.

Q: What about the “Duration of response to RECIST” value [20] of the same molecule?
A: The value was 3 months.

Q: And the “Adverse events (grade)” value (Patient 036, renal carcinoma, 825 mg/m^2, following Cycle 5 Day 1)?
A: The value was “thrombocytopenia (G3)”.

Q: And the “Best response to RECIST” value [21]?
A: Its value is “Stable Disease”.

Q: And the “Duration of response to RECIST” value [21]?
A: The value was 5 months.

Q: And the “Reduction in tumour volume” value (Patient 036, renal carcinoma, end of Cycle 4 CT scan)?
A: Its value is 7%.

Q: And the “Best response to RECIST” value [22]?
A: Its value is “Partial Response”.

Q: And the “Duration of response to RECIST” value [22]?
A: The value was 1 month.

Q: And the PFS [22]?
A: Its PFS is 4 months.

Q: And the “Reduction in tumour volume” value (Patient 037, pancreatic cancer, CT scan on 29 Apr. 2014)?
A: Its value is 30%.

Q: And the CEA level (Patient 037, pancreatic cancer, after treatment (536 at baseline))?
A: Its CEA level is 42.

Q: What about the CA19.9 level (Patient 037, pancreatic cancer, after treatment (15,000 at baseline)) of the same molecule?
A: Its CA19.9 level is 4,000.

Q: What about the “Reduction in tumour volume” value (Patient 037, pancreatic cancer, end of Cycle 2 CT scan) of the same molecule?
A: Its value is 18.4%.

Q: And the “Best response to RECIST” value (Patient 038, ovarian cancer, 900 mg/m^2 weekly)?
A: The value was “Progressive Disease”.

Q: And the “Increase in tumour volume” value (Patient 038, ovarian cancer, end of Cycle 2 scan)?
A: The value was 25%.
